One data set has as its system Staphylococcus aureus. Put plainly: Antibacterial activity against Staphylococcus aureus ATCC6538 after 24 hrs by MTT assay. The class given is functional. The following applies: ATCC6538, 24 h. On the technique in general: Tetrazolium dyes change colour on reduction, which living cells bring about.
The subject of a further data set is Bacillus subtilis. Put plainly: Antibacterial activity against Bacillus subtilis ATCC6633 after 24 hrs by MTT assay. As to conditions: ATCC6633, 24 h. The class given is functional.
The subject of another data set is Pseudomonas aeruginosa. The data set can be described thus: Antibacterial activity against Pseudomonas aeruginosa ATCC13525 after 24 hrs by MTT assay. As to conditions: ATCC13525, 24 h. The format is functional.
Another data set relates to Escherichia coli. The data set can be described thus: Antibacterial activity against Escherichia coli ATCC35218 after 24 hrs by MTT assay. The format is functional. As to conditions: ATCC35218, 24 h.
For data set [1], the target named is T1, 3-oxoacyl-[acyl-carrier-protein] synthase 3 (Escherichia coli, UniProt C3TDZ2).
T1 sequence (C3TDZ2 whole entry): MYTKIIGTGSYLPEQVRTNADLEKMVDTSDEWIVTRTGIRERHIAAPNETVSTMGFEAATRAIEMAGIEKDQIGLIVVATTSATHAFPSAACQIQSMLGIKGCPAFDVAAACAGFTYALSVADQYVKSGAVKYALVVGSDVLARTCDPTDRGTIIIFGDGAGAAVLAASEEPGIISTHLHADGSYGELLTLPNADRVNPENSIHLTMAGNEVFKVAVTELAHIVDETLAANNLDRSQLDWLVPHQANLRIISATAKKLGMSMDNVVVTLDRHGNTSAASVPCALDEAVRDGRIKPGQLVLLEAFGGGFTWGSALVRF
The data set can be described thus: Inhibition of N-terminal His-tagged Escherichia coli FabH expressed in Escherichia coli BL21 (DE3) using [3H]acetyl-coA after 25 mins by liquid scintillation counting.

Data set [2] can be described thus: Toxicity in erythrocytes assessed as hemolytic activity. The format is cell-based. The following applies: erythrocyte.

Here are results for 23 molecules from ChEMBL document CHEMBL1806404, “Synthesis, molecular modeling and biological evaluation of β-ketoacyl-acyl carrier protein synthase III (FabH) as novel antibacterial agents” (Bioorg Med Chem, 2011).

In brackets after ≈: the same amount, converted by molar mass. Where only a bound is given, the exact number is not on record here.

For orientation: MIC means the smallest concentration in the dilution series that meets the test's criterion for growth inhibition. Higher therefore signals a need for much substance. The term IC50 denotes the midpoint of a concentration-inhibition curve. Read a low IC50 as greater potency in that assay. `Cc1ncc([N+](=O)[O-])n1CC(C)OC(=O)/C=C/c1ccc(Cl)cc1` (stereo unspecified): the minimal inhibitory concentration (MIC) against Staphylococcus aureus was 25 µg/mL (≈ 71.5 µM); against Bacillus subtilis, 12.5 µg/mL (≈ 35.7 µM); against Pseudomonas aeruginosa it was 25 µg/mL (≈ 71.5 µM); against Escherichia coli it was 12.5 µg/mL (≈ 35.7 µM). In data set [1], this molecule registered an IC50 of 34.3 µM. Moreover, the MHC in data set [2] is more than 10 mg/mL.
Turning to `Cc1ncc([N+](=O)[O-])n1CC(C)OC(=O)/C=C/c1ccc(Br)cc1` (stereo unspecified), the MIC amounted to 3.13 µg/mL (≈ 7.94 µM) in the data set on Staphylococcus aureus, 3.13 µg/mL (≈ 7.94 µM) in the data set on Bacillus subtilis, 6.25 µg/mL (≈ 15.9 µM) in the data set with Pseudomonas aeruginosa and 6.25 µg/mL (≈ 15.9 µM) against Escherichia coli. Also, the IC50 in data set [1] came to 15.6 µM. In data set [2], the MHC was more than 10 mg/mL.
Turning to `Cc1ccc(/C=C/C(=O)OC(C)Cn2c([N+](=O)[O-])cnc2C)cc1` (stereo unspecified), the MIC against Staphylococcus aureus is more than 100 µg/mL; in the data set on Bacillus subtilis, more than 100 µg/mL; with Pseudomonas aeruginosa, 50 µg/mL (≈ 152 µM); with Escherichia coli it was 100 µg/mL (≈ 304 µM).
In the case of `COc1ccc(/C=C/C(=O)OC(C)Cn2c([N+](=O)[O-])cnc2C)cc1` (stereo unspecified), the MIC is 50 µg/mL (≈ 145 µM) against Staphylococcus aureus, 50 µg/mL (≈ 145 µM) in the data set on Bacillus subtilis, more than 100 µg/mL with Pseudomonas aeruginosa and more than 100 µg/mL against Escherichia coli.
As for `Cc1ncc([N+](=O)[O-])n1CC(C)OC(=O)/C=C/c1ccc(-c2ccccc2)cc1` (stereo unspecified), the MIC against Staphylococcus aureus is 1.56 µg/mL (≈ 3.99 µM); in the data set with Bacillus subtilis, 6.25 µg/mL (≈ 16 µM); against Pseudomonas aeruginosa, 3.13 µg/mL (≈ 8 µM); in the data set on Escherichia coli, 1.56 µg/mL (≈ 3.99 µM). In data set [1], the midpoint of inhibition, the IC50, lay at 2.5 µM. Further, the MHC in data set [2] is more than 10 mg/mL.
In the case of `Cc1ncc([N+](=O)[O-])n1CC(C)OC(=O)/C=C/c1ccc(OCc2ccccc2)cc1` (stereo unspecified), the minimal inhibitory concentration (MIC) in the data set with Staphylococcus aureus is 3.13 µg/mL (≈ 7.43 µM); against Bacillus subtilis, 6.25 µg/mL (≈ 14.8 µM); against Pseudomonas aeruginosa, 6.25 µg/mL (≈ 14.8 µM); against Escherichia coli, 3.13 µg/mL (≈ 7.43 µM). This molecule also yielded an IC50 in data set [1] of 6.7 µM. In data set [2], the MHC was more than 10 mg/mL.
Take `Cc1ncc([N+](=O)[O-])n1CC(C)OC(=O)/C=C/c1ccc(N(C)C)cc1` (stereo unspecified): the MIC against Staphylococcus aureus is 6.25 µg/mL (≈ 17.4 µM); against Bacillus subtilis, 12.5 µg/mL (≈ 34.9 µM); against Pseudomonas aeruginosa, 6.25 µg/mL (≈ 17.4 µM); against Escherichia coli, 6.25 µg/mL (≈ 17.4 µM). For the same molecule, inhibition in data set [1] was half-maximal at 19.8 µM (IC50). In addition, in data set [2], the MHC is more than 10 mg/mL.
As for `Cc1ncc([N+](=O)[O-])n1CC(C)OC(=O)/C=C/c1ccc(Cl)cc1Cl` (stereo unspecified), the minimal inhibitory concentration (MIC) against Staphylococcus aureus came to 12.5 µg/mL (≈ 32.5 µM); in the data set with Bacillus subtilis, 6.25 µg/mL (≈ 16.3 µM); in the data set on Pseudomonas aeruginosa, 6.25 µg/mL (≈ 16.3 µM); in the data set with Escherichia coli, 3.13 µg/mL (≈ 8.15 µM). The IC50 in data set [1] worked out at 9.4 µM. Besides, in data set [2], the MHC was more than 10 mg/mL.
In the case of `Cc1ncc([N+](=O)[O-])n1CC(C)OC(=O)/C=C/c1cccc2ccccc12` (stereo unspecified), the MIC with Staphylococcus aureus came to 50 µg/mL (≈ 137 µM); with Bacillus subtilis, 25 µg/mL (≈ 68.4 µM); with Pseudomonas aeruginosa, 50 µg/mL (≈ 137 µM); against Escherichia coli it was 25 µg/mL (≈ 68.4 µM). In data set [1], this molecule yielded an IC50 of 48.9 µM. Also, in data set [2], the MHC is more than 10 mg/mL.
Take `Cc1ncc([N+](=O)[O-])n1CC(C)OC(=O)/C=C/c1ccc2ccccc2c1` (stereo unspecified): the MIC worked out at 100 µg/mL (≈ 274 µM) against Staphylococcus aureus, 50 µg/mL (≈ 137 µM) against Bacillus subtilis, 50 µg/mL (≈ 137 µM) in the data set with Pseudomonas aeruginosa and 50 µg/mL (≈ 137 µM) in the data set on Escherichia coli.
Consider `Cc1ncc([N+](=O)[O-])n1CC(C)OC(=O)/C=C/c1cccs1` (stereo unspecified), for which the MIC in the data set with Staphylococcus aureus was 50 µg/mL (≈ 156 µM); in the data set with Bacillus subtilis, more than 100 µg/mL; against Pseudomonas aeruginosa it was 50 µg/mL (≈ 156 µM); against Escherichia coli, 50 µg/mL (≈ 156 µM).
For orientation: Ki means a measure of affinity in units of concentration, obtained from inhibition or displacement. For `Cc1ncc([N+](=O)[O-])n1CC(C)OC(=O)/C=C/c1ccccc1` (stereo unspecified), the MIC in the data set on Staphylococcus aureus, in the data set on Bacillus subtilis, in the data set on Pseudomonas aeruginosa and with Escherichia coli was more than 100 µg/mL each time. In addition, the Ki in data set [1] amounted to 1.32 pM.
With `Cc1ncc([N+](=O)[O-])n1CC(C)OC(=O)/C=C/c1ccccc1F` (stereo unspecified), the MIC in the data set with Staphylococcus aureus, in the data set with Bacillus subtilis, in the data set with Pseudomonas aeruginosa and against Escherichia coli was more than 100 µg/mL in each case.
Consider `Cc1ncc([N+](=O)[O-])n1CC(C)OC(=O)/C=C/c1ccccc1Cl` (stereo unspecified), for which the MIC amounted to 50 µg/mL (≈ 143 µM) in the data set with Staphylococcus aureus, 50 µg/mL (≈ 143 µM) against Bacillus subtilis, 25 µg/mL (≈ 71.5 µM) with Pseudomonas aeruginosa and 50 µg/mL (≈ 143 µM) with Escherichia coli.
As to `Cc1ncc([N+](=O)[O-])n1CC(C)OC(=O)/C=C/c1ccccc1Br` (stereo unspecified), the MIC came out at 25 µg/mL (≈ 63.4 µM) in the data set with Staphylococcus aureus, 50 µg/mL (≈ 127 µM) in the data set with Bacillus subtilis, 25 µg/mL (≈ 63.4 µM) with Pseudomonas aeruginosa and 25 µg/mL (≈ 63.4 µM) in the data set on Escherichia coli. This molecule registered an IC50 in data set [1] of 40.1 µM. Besides, the MHC in data set [2] was more than 10 mg/mL.
With `COc1ccccc1/C=C/C(=O)OC(C)Cn1c([N+](=O)[O-])cnc1C` (stereo unspecified), the minimum inhibitory concentration (MIC) in the data set with Staphylococcus aureus, in the data set with Bacillus subtilis, with Pseudomonas aeruginosa and with Escherichia coli was more than 100 µg/mL in each case. In data set [1], affinity was put at a Ki of 1.79 pM.
With `Cc1ncc([N+](=O)[O-])n1CC(C)OC(=O)/C=C/c1cccc(F)c1` (stereo unspecified), the MIC in the data set with Staphylococcus aureus came out at 6.25 µg/mL (≈ 18.8 µM); with Bacillus subtilis, 6.25 µg/mL (≈ 18.8 µM); in the data set with Pseudomonas aeruginosa it was 3.13 µg/mL (≈ 9.39 µM); against Escherichia coli it was 3.13 µg/mL (≈ 9.39 µM). The molecule also had an IC50 in data set [1] of 8.2 µM. The MHC in data set [2] is more than 10 mg/mL.
In the case of `Cc1ncc([N+](=O)[O-])n1CC(C)OC(=O)/C=C/c1cccc(Br)c1` (stereo unspecified), the MIC against Staphylococcus aureus was determined as 12.5 µg/mL (≈ 31.7 µM); with Bacillus subtilis it was 25 µg/mL (≈ 63.4 µM); in the data set with Pseudomonas aeruginosa it was 12.5 µg/mL (≈ 31.7 µM); in the data set on Escherichia coli it was 12.5 µg/mL (≈ 31.7 µM). Also, in data set [1], half-maximal inhibition (IC50) required 27.5 µM. The MHC in data set [2] is more than 10 mg/mL.
`COc1cccc(/C=C/C(=O)OC(C)Cn2c([N+](=O)[O-])cnc2C)c1` (stereo unspecified): the MIC against Staphylococcus aureus, in the data set with Bacillus subtilis, against Pseudomonas aeruginosa and with Escherichia coli was more than 100 µg/mL each time. Moreover, in data set [1], the Ki worked out at 2.73 pM.
`Cc1ncc([N+](=O)[O-])n1CC(C)OC(=O)/C=C/c1ccc(F)cc1` (stereo unspecified): the MIC was 100 µg/mL (≈ 300 µM) in the data set with Staphylococcus aureus, 50 µg/mL (≈ 150 µM) against Bacillus subtilis, 50 µg/mL (≈ 150 µM) against Pseudomonas aeruginosa and 50 µg/mL (≈ 150 µM) against Escherichia coli.
In data set [1], `O=C(O)/C=C/c1ccccc1` [CINNAMIC ACID] showed an IC50 of 43.4 µM. Besides, the MHC in data set [2] is more than 10 mg/mL.
Regarding `NC[C@H]1O[C@H](O[C@H]2[C@H](O)[C@@H](O[C@H]3O[C@H](CO)[C@@H](O)[C@H](N)[C@H]3O)[C@H](N)C[C@@H]2N)[C@H](O)[C@@H](O)[C@@H]1O` [KANAMYCIN], the MIC in the data set with Staphylococcus aureus came out at 1.56 µg/mL (≈ 3.22 µM); against Bacillus subtilis, 1.56 µg/mL (≈ 3.22 µM); in the data set on Pseudomonas aeruginosa, 3.13 µg/mL (≈ 6.46 µM); against Escherichia coli, 3.13 µg/mL (≈ 6.46 µM).
Consider `Cc1ncc([N+](=O)[O-])n1CC(C)O` (stereo unspecified) [SECNIDAZOLE], for which the IC50 in data set [1] amounted to 28.5 µM. Further, the MHC in data set [2] is more than 10 mg/mL.
